Series [1] concerns the target EGFR. As to the kind of experiment: HEK293-TLR7, 100 nM ASO, then resiquimod.
The target of series [2] is EGFR. Nature of the series: HEK293-TLR8, 100 nM ASO, then resiquimod.

Strand notation (5' to 3'): a small letter for the sugar, then the base; units joined by * are phosphorothioate-linked, units joined directly phosphodiester-linked; [ ] holds rarer units or linkages, { } end groups; capitals alone tell only the bases. d = 2'-deoxy (DNA); m = 2'-O-methyl

As to “mG*mG*mG*mU*mA*dT*dC*dG*dA*dA*dA*dG*dA*dG*dT*mC*mU*mG*mG*mA”, in the series with EGFR [1], the TLR7 signal (NF-kB luciferase) (% of resiquimod alone) was determined as 27.1. Besides, the TLR8 potentiation (NF-kB luciferase) (fold of resiquimod alone) in the series with EGFR [2] amounted to 0.91.

“mG*mG*mU*mG*mU*dC*dC*dT*dT*dG*dC*dA*dC*dG*dT*mG*mG*mC*mU*mU”: the TLR7 signal (NF-kB luciferase) (% of resiquimod alone) with EGFR [1] is 72.2. Moreover, in the series with EGFR [2], the TLR8 potentiation (NF-kB luciferase) (fold of resiquimod alone) is 0.88.

“mG*mU*mA*mA*mA*dA*dA*dG*dC*dT*dT*dT*dT*dG*dA*mA*mG*mU*mG*mA”: the TLR7 signal (NF-kB luciferase) (% of resiquimod alone) with EGFR [1] stood at 29.1. Further, in the series with EGFR [2], the TLR8 potentiation (NF-kB luciferase) (fold of resiquimod alone) turned out to be 1.62.

“mG*mU*mA*mA*mA*dA*dG*dG*dA*dG*dA*dA*dA*dA*dC*mU*mA*mU*mC*mU” gave a TLR7 signal (NF-kB luciferase) (% of resiquimod alone) with EGFR [1] of 31.7. Further, the TLR8 potentiation (NF-kB luciferase) (fold of resiquimod alone) in the series with EGFR [2] stood at 1.14.

With “mG*mU*mA*mC*mU*dC*dG*dT*dC*dG*dG*dC*dA*dT*dC*mC*mA*mC*mC*mA”, in the series with EGFR [1], the TLR7 signal (NF-kB luciferase) (% of resiquimod alone) amounted to 31.5. Moreover, in the series with EGFR [2], the TLR8 potentiation (NF-kB luciferase) (fold of resiquimod alone) stood at 1.25.

For the substance “mG*mU*mA*mG*mA*dG*dA*dA*dA*dT*dT*dA*dT*dT*dT*mU*mA*mG*mG*mA”, the TLR7 signal (NF-kB luciferase) (% of resiquimod alone) with EGFR [1] stood at 34.5. The TLR8 potentiation (NF-kB luciferase) (fold of resiquimod alone) with EGFR [2] was 2.47.

Regarding “mG*mU*mC*mC*mU*dT*dG*dC*dA*dC*dG*dT*dG*dG*dC*mU*mU*mC*mG*mU”, the TLR7 signal (NF-kB luciferase) (% of resiquimod alone) in the series with EGFR [1] worked out at 31.5. Besides, the TLR8 potentiation (NF-kB luciferase) (fold of resiquimod alone) in the series with EGFR [2] was determined as 0.8.

Take “mG*mU*mG*mU*mC*dC*dT*dT*dG*dC*dA*dC*dG*dT*dG*mG*mC*mU*mU*mC”: the TLR7 signal (NF-kB luciferase) (% of resiquimod alone) with EGFR [1] was determined as 28.3. Also, the TLR8 potentiation (NF-kB luciferase) (fold of resiquimod alone) in the series with EGFR [2] is 0.8.

With “mG*mU*mU*mA*mC*dT*dC*dG*dT*dG*dC*dC*dT*dT*dG*mG*mC*mA*mA*mA”, the TLR7 signal (NF-kB luciferase) (% of resiquimod alone) in the series with EGFR [1] came out at 32.3. Also, the TLR8 potentiation (NF-kB luciferase) (fold of resiquimod alone) with EGFR [2] worked out at 1.17.

“mU*mA*mA*mA*mA*dG*dG*dA*dG*dA*dA*dA*dA*dC*dT*mA*mU*mC*mU*mU” registered a TLR7 signal (NF-kB luciferase) (% of resiquimod alone) with EGFR [1] of 58.2. Besides, in the series with EGFR [2], the TLR8 potentiation (NF-kB luciferase) (fold of resiquimod alone) was 1.69.

“mU*mA*mC*mU*mC*dG*dT*dC*dG*dG*dC*dA*dT*dC*dC*mA*mC*mC*mA*mC” had a TLR7 signal (NF-kB luciferase) (% of resiquimod alone) with EGFR [1] of 70.2. Further, the TLR8 potentiation (NF-kB luciferase) (fold of resiquimod alone) with EGFR [2] came out at 1.08.

In the case of “mU*mA*mG*mG*mC*dA*dC*dT*dT*dT*dG*dC*dC*dT*dC*mC*mU*mU*mC*mU”, the TLR7 signal (NF-kB luciferase) (% of resiquimod alone) with EGFR [1] is 58.9. The TLR8 potentiation (NF-kB luciferase) (fold of resiquimod alone) with EGFR [2] turned out to be 2.29.

Regarding “mU*mC*mG*mG*mC*dA*dT*dC*dC*dA*dC*dC*dA*dC*dG*mU*mC*mG*mU*mC”, in the series with EGFR [1], the TLR7 signal (NF-kB luciferase) (% of resiquimod alone) turned out to be 53.7. The TLR8 potentiation (NF-kB luciferase) (fold of resiquimod alone) in the series with EGFR [2] turned out to be 1.39.

In the case of “mU*mG*mA*mA*mG*dT*dA*dA*dA*dA*dA*dT*dC*dA*dA*mU*mA*mG*mC*mG”, the TLR7 signal (NF-kB luciferase) (% of resiquimod alone) with EGFR [1] came out at 30. Moreover, the TLR8 potentiation (NF-kB luciferase) (fold of resiquimod alone) with EGFR [2] turned out to be 1.96.

Take “mU*mG*mG*mG*mC*dT*dG*dG*dA*dA*dT*dC*dC*dG*dA*mG*mU*mU*mA*mU”: in the series with EGFR [1], the TLR7 signal (NF-kB luciferase) (% of resiquimod alone) turned out to be 36.1. For the same substance, in the series with EGFR [2], the TLR8 potentiation (NF-kB luciferase) (fold of resiquimod alone) turned out to be 1.92.

In the series with EGFR [1], “mU*mG*mU*mA*mG*dA*dG*dA*dA*dA*dT*dT*dA*dT*dT*mU*mU*mA*mG*mG” yielded a TLR7 signal (NF-kB luciferase) (% of resiquimod alone) of 61.4. For the same substance, in the series with EGFR [2], the TLR8 potentiation (NF-kB luciferase) (fold of resiquimod alone) is 2.99.

With “mU*mG*mU*mC*mC*dT*dT*dG*dC*dA*dC*dG*dT*dG*dG*mC*mU*mU*mC*mG”, the TLR7 signal (NF-kB luciferase) (% of resiquimod alone) with EGFR [1] amounted to 62.7. The TLR8 potentiation (NF-kB luciferase) (fold of resiquimod alone) in the series with EGFR [2] was found to be 2.61.

Consider “mU*mU*mA*mC*mU*dT*dT*dA*dA*dA*dA*dG*dC*dA*dA*mA*mA*mG*mG*mA”, for which, in the series with EGFR [1], the TLR7 signal (NF-kB luciferase) (% of resiquimod alone) came out at 35. In the series with EGFR [2], the TLR8 potentiation (NF-kB luciferase) (fold of resiquimod alone) stood at 2.27.

In turn, “mU*mU*mG*mA*mA*dG*dT*dG*dA*dA*dG*dT*dA*dA*dA*mA*mG*mG*mA*mG” displayed a TLR7 signal (NF-kB luciferase) (% of resiquimod alone) with EGFR [1] of 31.8. In addition, the TLR8 potentiation (NF-kB luciferase) (fold of resiquimod alone) with EGFR [2] is 0.96.

Substance “mU*mU*mU*mA*mC*dG*dG*dT*dT*dT*dT*dC*dA*dG*dA*mA*mU*mA*mU*mC” came in with a TLR7 signal (NF-kB luciferase) (% of resiquimod alone) with EGFR [1] of 40.6. For the same substance, the TLR8 potentiation (NF-kB luciferase) (fold of resiquimod alone) in the series with EGFR [2] stood at 3.63.

In the series with EGFR [1], “mU*mU*mU*mG*mA*dA*dG*dT*dG*dA*dA*dG*dT*dA*dA*mA*mA*mG*mG*mA” showed a TLR7 signal (NF-kB luciferase) (% of resiquimod alone) of 35.2. For the same substance, in the series with EGFR [2], the TLR8 potentiation (NF-kB luciferase) (fold of resiquimod alone) was determined as 2.58.

In the case of “mU*mU*mU*mU*mG*dA*dA*dG*dT*dG*dA*dA*dG*dT*dA*mA*mA*mA*mG*mG”, in the series with EGFR [1], the TLR7 signal (NF-kB luciferase) (% of resiquimod alone) was determined as 51.6. Besides, the TLR8 potentiation (NF-kB luciferase) (fold of resiquimod alone) in the series with EGFR [2] stood at 3.08.

In turn, “mU*mU*mU*mU*mG*dA*dA*dG*dT*dG*dT*dT*dT*dA*dA*mU*mA*mU*mU*mC” returned a TLR7 signal (NF-kB luciferase) (% of resiquimod alone) with EGFR [1] of 78.9. For the same substance, in the series with EGFR [2], the TLR8 potentiation (NF-kB luciferase) (fold of resiquimod alone) is 4.09.

“mU*mU*mU*mU*mU*dG*dA*dA*dG*dT*dG*dT*dT*dT*dA*mA*mU*mA*mU*mU” had a TLR7 signal (NF-kB luciferase) (% of resiquimod alone) with EGFR [1] of 59. In addition, the TLR8 potentiation (NF-kB luciferase) (fold of resiquimod alone) in the series with EGFR [2] turned out to be 3.43.

The record behind these values is the OligoGym collection.
